According to patent US8071629B2, “2-pyridinylcycloalkylcarboxamide derivatives as fungicides” (Bayer Cropscience AG, priority 2005, dated 2011):

Tested on: Sphaerotheca fuliginea
Assay: In vivo test on Sphaerotheca fuliginea (powdery mildew)
Settings: gherkin plants, preventive spray 24 h before contamination, dose 600 g/ha, grading 13 days after contamination vs control plants
Description: The active ingredients tested are prepared by homogenization in a mixture of DMSO (dimethylsulfoxide)/acetone/tween/water. This suspension is then diluted with water to obtain the desired active material concentration.
Gherkin plants (Vert petit de Paris variety) in starter cups, sown on a 50/50 peat soil-pozzolana substrate and grown at 20° C./23° C., are treated at cotyledons stage by spraying with the aqueous suspension described above. Plants, used as controls, are treated with an aqueous solution not containing the active material.
After 24 hours, the plants are contaminated by spraying them with an aqueous suspension of Sphaerotheca fuliginea spores (100 000 spores per ml). The spores are collected from a contaminated plants. The contaminated gerkhin plants are incubated at about 20° C./25° C. and at 60/70% relative humidity.
Grading (% of efficacy) is carried out 13 days after the contamination, in comparison with the control plants.

For `Cn1cc(C(=O)N[C@@H]2CCCC[C@@H]2c2ncc(Cl)cc2Cl)c(C(F)F)n1` (relative stereo) [Compound A-2, N-{2-[3,5-dichloro-2-pyridinyl]cis-cyclohexyl}1-methyl-3-(difluoromethyl)-1H-pyrazole-4-carboxamide], the “protection, % of efficacy (good, at least 70%)” value was “at least 70%”.
